Literature values as cited in patent US20230112273A1, “Process for Producing an Aroma-Laden Gas, Aroma-Laden Gas, and Use of the Aroma-Laden Gas” (Döhler GmbH, priority 2020, published 2023).

Settings: listed beside the composition of the aromatic substances in the laden solid phase (beer, Exemplary Embodiment 1)

SMILES	Log P
CCC(C)CO (stereo not shown) [2-methyl-1-butanol]	1.22
CC(C)CCO [3-methyl-1-butanol]	1.22
CC(=O)OCCC(C)C [3-methylbutyl acetate]	2.12
CCCCCCCCCC(=O)O [decanoic acid]	3.96
CCCCCC(=O)O [hexanoic acid]	1.84
CC(C)CO [isobutanol]	0.69
CCCCCCCC(=O)OCC [octanoic acid ethyl ester]	3.9
